Calls of active or inactive are those of the source. The rule behind the calls is not given here. *1 amine or outer side, *2 acyl side, *3 side chain or, on linkers, in order; H or OH if unused. Where a SMILES comes first, the peptide text is derived from it. [ ]: non-standard residue; d: D form. The star is where a group is joined. ξ: configuration not given here. Glutaryl(5-(14-O-Dox)) = COc1cccc2c1C(=O)c1c(O)c3c(c(O)c1C2=O)C[C@@](O)(C(=O)COC(=O)CCCC(=O)*)C[C@@H]3O[C@H]1C[C@H](N)[C@H](O)[C@H](C)O1; X7 = COc1cccc2c1C(=O)c1c(O)c3c(c(O)c1C2=O)C[C@@](O)(C(=O)CO)C[C@@H]3O[C@H]1C[C@H](NC(=O)CCCCCN2C(=O)CC(*)C2=O)[C@H](O)[C@H](C)O1; X5 = O=C(O)CCCCCCCCCCCCCCCCC(=O)NC(CCC(=O)NCCOCCOCC(=O)NCCOCCOCC(=O)NC(CCCCNC(=O)CCN1C(=O)CC(*)C1=O)C(=O)O)C(=O)O; X3 = CC(C)C(NC(=O)CCCCCN1C(=O)CC(*)C1=O)C(=O)NC(CCCNC(N)=O)C(=O)Nc1ccc(OCC2OC(n3ccc(N)nc3=O)C(F)(F)C2O)cc1; X6 = Nc1ccn(C2OC(COC(=O)CCCCCN3C(=O)CC(*)C3=O)C(O)C2(F)F)c(=O)n1; X2 = NC(=O)C[C@H](N[*:1])C(=O)C[C@@H](CC(=O)O)C(=O)[*:2]; X4 = Nc1ccn(C2OC(COC(=O)CCCC(=O)*)C(O)C2(F)F)c(=O)n1; C18 diacid = O=C(O)CCCCCCCCCCCCCCCCC(=O)*; ξγGlu = O=C(O)C(CCC(=O)[*:2])N[*:1]; AEEA = NCCOCCOCC(=O)O
How the values were obtained:
[1] = molecular target: T1, Inactive tyrosine-protein kinase transmembrane receptor ROR1 (Homo sapiens, UniProt Q01973); assay: Binding affinity to N-terminal His/GST-tagged recombinant human ROR1 (453 to 783 residues) extracted from baculovirus infected insect cells assessed as dissociation constant by SPR analysis
T1 sequence (Q01973 whole entry, the tested form may be a part): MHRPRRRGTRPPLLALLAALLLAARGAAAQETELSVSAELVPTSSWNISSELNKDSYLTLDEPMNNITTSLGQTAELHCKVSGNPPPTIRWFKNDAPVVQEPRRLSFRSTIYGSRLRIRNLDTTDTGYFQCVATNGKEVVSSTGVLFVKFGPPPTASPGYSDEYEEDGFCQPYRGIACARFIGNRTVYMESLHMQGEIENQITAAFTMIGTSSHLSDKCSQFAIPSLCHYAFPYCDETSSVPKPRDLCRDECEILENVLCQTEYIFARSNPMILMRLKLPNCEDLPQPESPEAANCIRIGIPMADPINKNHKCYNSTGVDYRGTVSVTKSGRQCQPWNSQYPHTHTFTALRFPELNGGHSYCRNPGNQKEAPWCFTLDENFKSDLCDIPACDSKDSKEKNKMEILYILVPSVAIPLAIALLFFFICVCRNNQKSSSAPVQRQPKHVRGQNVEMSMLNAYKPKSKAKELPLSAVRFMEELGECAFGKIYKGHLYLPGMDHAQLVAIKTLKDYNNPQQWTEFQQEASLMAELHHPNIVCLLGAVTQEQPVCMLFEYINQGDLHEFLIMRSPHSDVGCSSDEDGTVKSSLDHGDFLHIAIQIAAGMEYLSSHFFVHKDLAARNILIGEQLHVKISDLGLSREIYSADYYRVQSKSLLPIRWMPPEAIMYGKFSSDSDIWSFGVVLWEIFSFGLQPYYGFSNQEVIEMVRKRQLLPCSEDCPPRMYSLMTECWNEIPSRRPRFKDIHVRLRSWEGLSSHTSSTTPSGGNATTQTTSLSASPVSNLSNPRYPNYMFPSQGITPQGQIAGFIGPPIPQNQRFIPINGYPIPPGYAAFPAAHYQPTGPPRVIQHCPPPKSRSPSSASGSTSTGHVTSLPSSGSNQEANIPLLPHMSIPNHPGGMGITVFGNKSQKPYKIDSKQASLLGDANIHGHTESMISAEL

MCF7 [2] = assay: Cytotoxicity against ROR1-negative human MCF7 cells assessed as decrease in cell viability incubated for 24 hrs by CCK-8 assay; assay type: functional, cell-based; conditions: MCF7, 24 h
SK-HEP1 = assay: Cytotoxicity against human SK-HEP1 cells assessed as decrease in cell viability incubated for 24 hrs by CCK-8 assay; assay type: functional, cell-based; conditions: SK-HEP1, 24 h
MDA-MB-231 = assay: Cytotoxicity against ROR1-positive human MDA-MB-231 cells assessed as decrease in cell viability incubated for 24 hrs by CCK-8 assay; assay type: functional, cell-based; conditions: MDA-MB-231, 24 h
[3] = Cytotoxicity against human MCF-10A cells assessed as decrease in cell viability incubated for 24 hrs by CCK-8 assay; assay type: toxicity, cell-based
[4] = molecular target: T1, Inactive tyrosine-protein kinase transmembrane receptor ROR1; assay: Binding affinity to ROR1 positive human MDA-MB-231 cells at 10 uM administered as FITC-labeled compound and measured after 30 mins by Hoechst 33342 staining based confocal fluorescence microscopic analysis; assay type: cell-based
MCF7 [5] = assay: Binding affinity to ROR1 negative human MCF7 cells at 10 uM administered as FITC-labeled compound and measured after 30 mins by Hoechst 33342 staining based confocal fluorescence microscopic analysis; assay type: functional, cell-based
Homo sapiens = species on record: Homo sapiens; assay: Binding affinity to CD16A (unknown origin) by SPR analysis

| Compound | Kd [1] | IC50 (MCF7 [2]) | IC50 (SK-HEP1) | IC50 (MDA-MB-231) | IC50 at 24 h [3] | Activity [4] | Activity (MCF7 [5]) | Activity (Homo sapiens) |
| --- | --- | --- | --- | --- | --- | --- | --- | --- |
| H-INSGPSDINDYPI-NH2 | 0.0405 µM | – | – | – | – | – | – | – |
| Nc1ccn([C@@H]2O[C@H](CO)[C@@H](O)C2(F)F)c(=O)n1 [GEMCITABINE] | – | 4.79 µM | 3.67 µM | 1.78 µM | 3.23 µM | – | – | – |
| CC[C@H](C)[C@H](NC(=O)[C@H](CC(=O)O)NC(=O)[C@H](CO)NC(=O)CNC(=O)[C@H](CSC1CC(=O)N(CCC(=O)NCCCCC(NC(=O)COCCOCCNC(=O)COCCOCCNC(=O)CCC(NC(=O)CCCCCCCCCCCCCCCCC(=O)O)C(=O)O)C(=O)O)C1=O)NC(=O)CNC(=O)[C@H](CCCCN)NC(=O)CCCC(=O)OCC(=O)[C@]1(O)Cc2c(O)c3c(c(O)c2[C@@H](O[C@H]2C[C@H](N)[C@H](O)[C@H](C)O2)C1)C(=O)c1c(OC)cccc1C3=O)C(=O)N[C@@H](CC(N)=O)C(=O)N[C@@H](CC(=O)O)C(=O)N[C@@H](CCCNC(=N)N)C(=O)N[C@@H](CCC(N)=O)C(=O)N[C@H](C(=O)N1CCC[C@H]1C(=O)NCC(=O)N[C@@H](Cc1ccc(O)cc1)C(=O)N[C@@H](CO)C(=O)N[C@H](C(=O)N[C@@H](Cc1ccc(O)cc1)C(=O)N[C@@H](Cc1c[nH]c2ccccc12)C(=O)NCC(=O)N[C@@H](CC(=O)O)C(=O)N[C@@H](Cc1ccccc1)C(N)=O)[C@@H](C)O)[C@@H](C)CC (some centres not stated) ({Glutaryl(5-(14-O-Dox))}-KGC(X5)GSDINDRQIPGYSTYWGDF-NH2) | 0.0665 µM | 16.9 µM | 1.27 µM | 2.83 µM | 10.1 µM | – | – | – |
| H-SDINDYPIPGYSTYYGDF-NH2 | 0.00298 µM | – | – | – | – | Active | inactive | Not active; Abnormal Binding Affinity Curves Observed |
| CC[C@H](C)[C@H](NC(=O)[C@H](CC(=O)O)NC(=O)[C@H](CO)NC(=O)CNC(=O)[C@H](CSC1CC(=O)N(CCCCCC(=O)N[C@H]2C[C@H](O[C@H]3C[C@](O)(C(=O)CO)Cc4c(O)c5c(c(O)c43)C(=O)c3c(OC)cccc3C5=O)O[C@@H](C)[C@H]2O)C1=O)NC(=O)CNC(=O)[C@H](CCCCN)NC(=O)COCCOCCNC(=O)COCCOCCNC(=O)[C@H](CCC(=O)O)NC(=O)CCCCCCCCCCCCCCCCC(=O)O)C(=O)N[C@@H](CC(N)=O)C(=O)N[C@@H](CC(=O)O)C(=O)N[C@@H](CCCNC(=N)N)C(=O)N[C@@H](CCC(N)=O)C(=O)N[C@H](C(=O)N1CCC[C@H]1C(=O)NCC(=O)N[C@@H](Cc1ccc(O)cc1)C(=O)N[C@@H](CO)C(=O)N[C@H](C(=O)N[C@@H](Cc1ccc(O)cc1)C(=O)N[C@@H](Cc1c[nH]c2ccccc12)C(=O)NCC(=O)N[C@@H](CC(=O)O)C(=O)N[C@@H](Cc1ccccc1)C(N)=O)[C@@H](C)O)[C@@H](C)CC (some centres not stated) ({C18 diacid}-E[AEEA][AEEA]KGC(X7)GSDINDRQIPGYSTYWGDF-NH2) | 0.152 µM | 35.6 µM | 20 µM | 14.6 µM | 27.3 µM | – | – | – |
| CC[C@H](C)[C@H](NC(=O)[C@H](CC(=O)O)NC(=O)[C@H](CO)NC(=O)CNC(=O)[C@H](CSC1CC(=O)N(CCCCCC(=O)NC(C(=O)NC(CCCNC(N)=O)C(=O)Nc2ccc(OCC3OC(n4ccc(N)nc4=O)C(F)(F)C3O)cc2)C(C)C)C1=O)NC(=O)CNC(=O)[C@H](CCCCN)NC(=O)COCCOCCNC(=O)COCCOCCNC(=O)CCC(NC(=O)CCCCCCCCCCCCCCCCC(=O)O)C(=O)O)C(=O)N[C@@H](CC(N)=O)C(=O)C[C@@H](CC(=O)O)C(=O)N[C@@H](CCCNC(=N)N)C(=O)N[C@@H](CCC(N)=O)C(=O)N[C@H](C(=O)N1CCC[C@H]1C(=O)NCC(=O)N[C@@H](Cc1ccc(O)cc1)C(=O)N[C@@H](CO)C(=O)N[C@H](C(=O)N[C@@H](Cc1ccc(O)cc1)C(=O)N[C@@H](Cc1c[nH]c2ccccc12)C(=O)NCC(=O)N[C@@H](CC(=O)O)C(=O)N[C@@H](Cc1ccccc1)C(N)=O)[C@@H](C)O)[C@@H](C)CC (some centres not stated) ({C18 diacid-ξγGlu-AEEA-AEEA}-KGC(X3)GSDI[X2]RQIPGYSTYWGDF-NH2) | 0.0285 µM | > 50 µM | 1.23 µM | 6.79 µM | 14.6 µM | – | – | – |
| H-INSGPSDINDRQIPGYSTYWGDF-NH2 | 0.261 µM | – | – | – | – | – | – | – |
| H-INSGPSDINDYPIPGYSTYYGDF-NH2 | 0.713 µM | – | – | – | – | – | – | – |
| H-GYSTYWGDF-NH2 | 0.147 µM | – | – | – | – | – | – | – |
| CC[C@H](C)[C@H](NC(=O)[C@H](CC(=O)O)NC(=O)[C@H](CO)NC(=O)CNC(=O)[C@H](CSC1CC(=O)N(CCCCCC(=O)OCC2OC(n3ccc(N)nc3=O)C(F)(F)C2O)C1=O)NC(=O)CNC(=O)[C@H](CCCCN)NC(=O)COCCOCCNC(=O)COCCOCCNC(=O)CCC(NC(=O)CCCCCCCCCCCCCCCCC(=O)O)C(=O)O)C(=O)N[C@@H](CC(N)=O)C(=O)N[C@@H](CC(=O)O)C(=O)N[C@@H](CCCNC(=N)N)C(=O)N[C@@H](CCC(N)=O)C(=O)N[C@H](C(=O)N1CCC[C@H]1C(=O)NCC(=O)N[C@@H](Cc1ccc(O)cc1)C(=O)N[C@@H](CO)C(=O)N[C@H](C(=O)N[C@@H](Cc1ccc(O)cc1)C(=O)N[C@@H](Cc1c[nH]c2ccccc12)C(=O)NCC(=O)N[C@@H](CC(=O)O)C(=O)N[C@@H](Cc1ccccc1)C(N)=O)[C@@H](C)O)[C@@H](C)CC (some centres not stated) ({C18 diacid-ξγGlu-AEEA-AEEA}-KGC(X6)GSDINDRQIPGYSTYWGDF-NH2) | 0.124 µM | 16.6 µM | 26 µM | 15.8 µM | 30.1 µM | – | – | – |
| H-INSGPGYSTYYGDF-NH2 | 0.00121 µM | – | – | – | – | Active | inactive | Not active; Abnormal Binding Affinity Curves Observed |
| CC[C@H](C)[C@H](NC(=O)[C@H](CC(=O)O)NC(=O)[C@H](CO)NC(=O)CNC(=O)[C@H](CSC1CC(=O)N(CCC(=O)NCCCCC(NC(=O)COCCOCCNC(=O)COCCOCCNC(=O)CCC(NC(=O)CCCCCCCCCCCCCCCCC(=O)O)C(=O)O)C(=O)O)C1=O)NC(=O)CNC(=O)[C@H](CCCCN)NC(=O)CCCC(=O)OCC1OC(n2ccc(N)nc2=O)C(F)(F)C1O)C(=O)N[C@@H](CC(N)=O)C(=O)N[C@@H](CC(=O)O)C(=O)N[C@@H](CCCNC(=N)N)C(=O)N[C@@H](CCC(N)=O)C(=O)N[C@H](C(=O)N1CCC[C@H]1C(=O)NCC(=O)N[C@@H](Cc1ccc(O)cc1)C(=O)N[C@@H](CO)C(=O)N[C@H](C(=O)N[C@@H](Cc1ccc(O)cc1)C(=O)N[C@@H](Cc1c[nH]c2ccccc12)C(=O)NCC(=O)N[C@@H](CC(=O)O)C(=O)N[C@@H](Cc1ccccc1)C(N)=O)[C@@H](C)O)[C@@H](C)CC (some centres not stated) (X4-KGC(X5)GSDINDRQIPGYSTYWGDF-NH2) | 0.0398 µM | 17.8 µM | 7.54 µM | 0.301 µM | 27.9 µM | – | – | – |
| H-SDINDRQI-NH2 | 0.0265 µM | – | – | – | – | – | – | – |

— ChEMBL document CHEMBL6083182, “Development of Peptide Paratope Mimics Derived from the Anti-ROR1 Antibody and Long-Acting Peptide-Drug Conjugates for Targeted Cancer Therapy” (J Med Chem, 2024)
